Earlier results in US20160120870A1, “THE PROCESS FOR THE PREPARATION OF A PHARMACEUTICAL COMPOSITION COMPRISING RIVAROXABAN” (SANDOZ AG, priority 2013, published 2016).

Details: background prior art, drug substance

O=C(NC[C@H]1CN(c2ccc(N3CCOCC3=O)cc2)C(=O)O1)c1ccc(Cl)s1 [Rivaroxaban, (S)-5-chloro-N-{[2-oxo-3-[4-(3-oxomorpholin-4-yl)phenyl]oxazolidin-5-yl]methyl}thiophene-2-carboxamide]
water solubility: relatively poor
